In data set [1] the test system is HCV replicon (Clone A cells, Huh7, subgenomic hepatits C virus RNA). The experiment in a line: HCV Neo screening assay (HCV replicon, NPTII ELISA). It counts as cell-based, hepatitis C virus. The following applies: for inhibition at 25 µM / EC50: Hepatitis C virus, Huh-7; for inhibition at 25 µM: primary screening, 25 μM final concentration, 24 hours, percent inhibition of viral replication, read-out: HCV Inh; for EC50: Secondary Data, HCV; for HCV TI: therapeutic index CC50/EC50, HCV. Background: Replicon systems follow genome replication, usually without infectious particles.

Data set [2] deals with RSV minigenome. The experiment in a line: RSV minigenome-dependent β-galactosidase expression assay (RSV β-Gal). It counts as cell-based, respiratory syncytial virus. The conditions noted are these: for EC50 / inhibition at 25 µM: human respiratory syncytial virus; for EC50: Secondary Data, RSV, read-out: RSV EC50; for inhibition at 25 µM: primary screening, 25 μM final concentration, 24 hours, percent inhibition of viral replication, read-out: RSV Inh; for RSV TI: therapeutic index CC50/EC50, RSV.

In data set [3] the test system is WNV (WN-hRuPac cells). Put plainly: WNV antiviral activity, WN-hRuPac cells, Renilla luciferase. The conditions noted are these: for EC50 / inhibition at 25 µM: West Nile virus; for EC50: Secondary Data, WNV, read-out: WNV EC50; for inhibition at 25 µM: primary screening, 25 μM final concentration, 24 hours, percent inhibition of viral replication, read-out: WNV Inh; for WNV TI: therapeutic index CC50/EC50, WNV. The data set is classed as cell-based, West Nile virus.

The subject of data set [4] is YFV (YF-hRuPac cells). Put plainly: microbe, parasite or virus in culture. The conditions noted are these: for inhibition at 25 µM / EC50: Yellow fever virus; for inhibition at 25 µM: 24 h, read-out: YFV Inh; for EC50: read-out: YFV EC50. It counts as cell-based, yellow fever virus.
Data set [5] relates to DNG (D2-hRuPac cells). Put plainly: DNG antiviral activity, D2-hRuPac cells, Renilla luciferase. The following applies: Dengue virus, secondary screening. The data set is classed as cell-based, Dengue fever virus.
In data set [6] the test system is EBOV minigenome. The experiment in a line: microbe, parasite or virus in culture. The data set is classed as cell-based, Ebola virus. The following applies: Zaire ebolavirus; for inhibition at 25 µM: 24 h, read-out: EBOV Inh; for EC50: read-out: EBOV EC50.
Data set [7] has as its system SINV (SR19-F-luc cells). Put plainly: SINV antiviral activity, SR19-F-luc cells, Firefly luciferase. It counts as cell-based. The conditions noted are these: Sindbis virus; for inhibition at 25 µM: primary screening, 25 μM final concentration, 24 hours, percent inhibition of viral replication, read-out: SINV Inh; for EC50: secondary screening, SR19-F-luc cells.
A short description of data set [8]: in vitro.

For orientation: EC50 means the concentration that produces a half-maximal response. `CCOC(=O)c1ccc2ncc(C(=O)OCC)c(NCc3ccco3)c2c1` [Compound 13]: the inhibition at 25 µM in data set [1] was 27.4%; in data set [2] it was 92.1%; in data set [3], 98%; in data set [4], 89.5%; in data set [6] it was 59%; in data set [7] it was -12.1%. Moreover, the EC50 in data set [2] stood at 2.93 µM; in data set [3], 4.78 µM; in data set [4] it was 8.88 µM; in data set [5], 10.5 µM; in data set [6], 6.03 µM; in data set [7], 44.5 µM. Further, the “RSV TI” value in data set [2] was 12.07. In addition, the “WNV TI” value in data set [3] turned out to be 7.4. The “YFV TI” value in data set [4] was 3.98. The CC50 in data set [8] (DNG CC50) is 35.4 µM; in data set [8] (EBOV CC50), 35.4 µM; in data set [8] (HCV CC50), ≥ 75 µM; in data set [8] (RSV CC50) it was 35.4 µM; in data set [8] (SINV CC50), 35.4 µM; in data set [8] (WNV CC50), 35.4 µM. Besides, the CC50 in data set [8] (YFV CC50) amounted to 35.4 µM.

`COC(=O)c1ccc(Nc2cc(C)nc3cc(Cl)ccc23)cc1` [Compound 14]: the EC50 in data set [1] is 1.3 µM; in data set [2] it was 36.9 µM; in data set [3], ≥ 75 µM; in data set [4], 9.23 µM; in data set [5], 54.3 µM; in data set [6], 65.6 µM. In data set [7], this compound gave an EC50 of 17.6 µM. Besides, the inhibition at 25 µM was 81.2% in data set [1]; 48.4% in data set [2]; 51.6% in data set [3]; 54.6% in data set [4]; -19.5% in data set [6]; 56.7% in data set [7]. For the same compound, the “HCV TI” value in data set [1] stood at 57.69. Besides, in data set [2], the “RSV TI” value is 1.46. Further, the “WNV TI” value in data set [3] amounted to 0.72. Moreover, the “YFV TI” value in data set [4] turned out to be 5.82. Moreover, the CC50 is 53.7 µM in data set [8] (DNG CC50); 53.7 µM in data set [8] (EBOV CC50); ≥ 75 µM in data set [8] (HCV CC50); 53.7 µM in data set [8] (RSV CC50); 53.7 µM in data set [8] (SINV CC50); 53.7 µM in data set [8] (WNV CC50). Moreover, the CC50 in data set [8] (YFV CC50) is 53.7 µM.

For `Cc1ccc2nc(C)cc(N3CCC(C)CC3)c2c1` [Compound 15], the inhibition at 25 µM in data set [1] was 45.1%; in data set [2] it was 72.6%; in data set [3], 55.9%; in data set [4], 37.5%; in data set [6], 49.2%; in data set [7], 72%. Also, the EC50 is 7.34 µM in data set [2]; ≥ 75 µM in data set [3]; 46.4 µM in data set [4]; 71.9 µM in data set [5]; 71.1 µM in data set [6]; 5.58 µM in data set [7]. In data set [2], the “RSV TI” value is given as 9.94. In addition, in data set [3], the “WNV TI” value is 0.97. Further, the “YFV TI” value in data set [4] came to 1.57. The CC50 was found to be 72.9 µM in data set [8] (DNG CC50); 72.9 µM in data set [8] (EBOV CC50); 35.7 µM in data set [8] (HCV CC50); 72.9 µM in data set [8] (RSV CC50); 72.9 µM in data set [8] (SINV CC50); 72.9 µM in data set [8] (WNV CC50). Also, the CC50 in data set [8] (YFV CC50) was determined as 72.9 µM.

Turning to `Cc1ccc2nc3c(c(Nc4ccc(O)cc4)c2c1)CCC3` [Compound 16], the EC50 in data set [1] was found to be 9 µM; in data set [2], 7.1 µM; in data set [3], 13.1 µM; in data set [4], 21 µM; in data set [5], 9.44 µM; in data set [6], 29.9 µM. In addition, in data set [7], the half-maximal effective concentration (EC50) was 1.52 µM. The inhibition at 25 µM amounted to 119% in data set [1]; 88.5% in data set [2]; 66.8% in data set [3]; 75.9% in data set [4]; 7.83% in data set [6]; 79.5% in data set [7]. Further, the “HCV TI” value in data set [1] came out at 3.72. Besides, the “RSV TI” value in data set [2] amounted to 4.81. Further, in data set [3], the “WNV TI” value came to 2.61. Besides, the “YFV TI” value in data set [4] was 1.63. Further, the CC50 in data set [8] (DNG CC50) came out at 34.1 µM; in data set [8] (EBOV CC50), 34.1 µM; in data set [8] (HCV CC50), 33.5 µM; in data set [8] (RSV CC50), 34.1 µM; in data set [8] (SINV CC50) it was 34.1 µM; in data set [8] (WNV CC50), 34.1 µM. This compound also came in with a CC50 in data set [8] (YFV CC50) of 34.1 µM.

`CC(=O)c1cccc(Nc2cc(C)nc3ccccc23)c1` [Compound 17]: the inhibition at 25 µM in data set [1] is 12.3%; in data set [2] it was 50.7%; in data set [3], 40.3%; in data set [4], 54%; in data set [6], -42%; in data set [7], 72.1%. For the same compound, the EC50 in data set [2] is 37.3 µM; in data set [3] it was ≥ 75 µM; in data set [4] it was 63.6 µM; in data set [5], ≥ 75 µM; in data set [6], 75 µM; in data set [7], 3.83 µM. The “RSV TI” value in data set [2] worked out at 2.01. Also, the “YFV TI” value in data set [4] was 1.18. In addition, the CC50 in data set [8] (DNG CC50) was ≥ 75 µM; in data set [8] (EBOV CC50), ≥ 75 µM; in data set [8] (HCV CC50), 30.4 µM; in data set [8] (RSV CC50) it was ≥ 75 µM; in data set [8] (SINV CC50) it was ≥ 75 µM; in data set [8] (WNV CC50), ≥ 75 µM. Besides, in data set [8] (YFV CC50), the CC50 was ≥ 75 µM.

For the compound `Cc1ccc2nc(C)cc(NCc3ccccc3)c2c1` [Compound 18], the inhibition at 25 µM is 36.9% in data set [1]; 88.6% in data set [2]; 63.9% in data set [3]; 61.5% in data set [4]; -29.5% in data set [6]; 54.4% in data set [7]. Also, the EC50 in data set [2] came to 5.57 µM; in data set [3] it was 21.3 µM; in data set [4], 9.07 µM; in data set [5], 31.5 µM; in data set [7] it was 15.3 µM. Moreover, in data set [2], the “RSV TI” value is 10.12. The “WNV TI” value in data set [3] is given as 2.65. Also, in data set [4], the “YFV TI” value was found to be 6.21. In addition, the CC50 in data set [8] (DNG CC50), in data set [8] (EBOV CC50), in data set [8] (RSV CC50), in data set [8] (SINV CC50), in data set [8] (WNV CC50) and in data set [8] (YFV CC50) was 56.4 µM throughout.

Take `COc1ccc(Nc2cc(C)nc3ccccc23)cc1` [Compound 20]: the inhibition at 25 µM in data set [1] was found to be 14.8%; in data set [2], 61.4%; in data set [3], 38.4%; in data set [4], 51%; in data set [6] it was 21%; in data set [7], 75.5%. Also, the EC50 was 8.52 µM in data set [2]; ≥ 75 µM in data set [3]; 26.5 µM in data set [4]; 42 µM in data set [5]; 50.1 µM in data set [6]; 4.28 µM in data set [7]. The “RSV TI” value in data set [2] came to 8.8. The “YFV TI” value in data set [4] came out at 2.83. Further, the CC50 was ≥ 75 µM in data set [8] (DNG CC50); ≥ 75 µM in data set [8] (EBOV CC50); 64.2 µM in data set [8] (HCV CC50); ≥ 75 µM in data set [8] (RSV CC50); ≥ 75 µM in data set [8] (SINV CC50); ≥ 75 µM in data set [8] (WNV CC50). For the same compound, the CC50 in data set [8] (YFV CC50) is ≥ 75 µM.

Source of the values: US20090221624A1, “4-AMINOQUINOLINE COMPOUNDS FOR TREATING VIRUS-RELATED CONDITIONS” (priority 2005, published 2009).
